SMILES strings stand for the structures.

The target of this assay is PLK1 (Homo sapiens, UniProt P53350). In words: PLK1 Inhibition Assay I (radioactive-phosphate incorporation). Type of assay: biochemical. To be noted: Ki(app); PLK1 Inhibition Assay I or II (table does not say which). In a few lines: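 Ki(app) values came from non-linear regression of initial rates after background subtraction, with phosphopeptide measured by phosphocellulose filter binding and scintillation counting. PLK1 at 2 nM was preincubated with compound (typically from 10 μM, 2-fold dilutions) for 10 min, then run 240 min at 25° C with 350 μM [γ-33P]ATP and 450 μM peptide substrate in HEPES pH 7.5 buffer.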
Chain of PLK1 (P53350 whole entry): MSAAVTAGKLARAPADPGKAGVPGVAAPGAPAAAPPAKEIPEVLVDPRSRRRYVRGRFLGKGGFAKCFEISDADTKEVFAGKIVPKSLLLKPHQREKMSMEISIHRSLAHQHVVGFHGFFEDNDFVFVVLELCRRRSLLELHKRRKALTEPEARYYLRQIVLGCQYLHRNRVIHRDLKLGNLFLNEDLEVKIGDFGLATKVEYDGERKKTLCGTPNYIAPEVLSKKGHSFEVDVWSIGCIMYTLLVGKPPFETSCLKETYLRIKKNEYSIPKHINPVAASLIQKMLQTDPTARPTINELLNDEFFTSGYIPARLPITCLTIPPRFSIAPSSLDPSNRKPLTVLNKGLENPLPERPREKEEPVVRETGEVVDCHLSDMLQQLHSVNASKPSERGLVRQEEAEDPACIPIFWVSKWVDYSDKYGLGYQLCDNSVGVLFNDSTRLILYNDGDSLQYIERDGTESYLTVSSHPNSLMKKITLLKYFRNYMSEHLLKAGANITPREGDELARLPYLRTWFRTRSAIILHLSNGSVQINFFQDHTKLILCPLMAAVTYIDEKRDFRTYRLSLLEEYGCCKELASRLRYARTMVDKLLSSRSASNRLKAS

For the compound `CNS(=O)(=O)c1ccc([C@@H](C)Nc2ncc(C#N)c(-c3c[nH]c4ncc(C(F)(F)F)cc34)n2)cc1` [Compound I-200, 4-((1R)-1-(5-cyano-4-(5-(trifluoromethyl)-1H-pyrrolo[2,3-b]pyridin-3-yl)pyrimidin-2-ylamino)ethyl)-N-methylbenzenesulfonamide], the Ki is < 3 nM.

With `CC(Nc1ncc(C#N)c(-c2c[nH]c3ncc(C(F)(F)F)cc23)n1)c1ccc(N2CC(O)C2)nc1` (centres unmarked) [Compound I-201, 2-(1-(6-(3-hydroxyazetidin-1-yl)pyridin-3-yl)ethylamino)-4-(5-(trifluoromethyl)-1H-pyrrolo[2,3-b]pyridin-3-yl)pyrimidine-5-carbonitrile], the Ki is < 3 nM.

For `C[C@@H](Nc1ncc(C#N)c(-c2c[nH]c3ncc(C(F)(F)F)cc23)n1)C1CCNCC1` [Compound I-204, 2-((R)-1-(piperidin-4-yl)ethylamino)-4-(5-(trifluoromethyl)-1H-pyrrolo[2,3-b]pyridin-3-yl)pyrimidine-5-carbonitrile], the Ki is 3 to 40 nM. Take `C[C@@H](Nc1ncc(C#N)c(-c2c[nH]c3ncc(C(F)(F)F)cc23)n1)C1CCN(C(=O)CO)CC1` [Compound I-205, 2-((R)-1-(1-(2-hydroxyacetyl)piperidin-4-yl)ethylamino)-4-(5-(trifluoromethyl)-1H-pyrrolo[2,3-b]pyridin-3-yl)pyrimidine-5-carbonitrile]: the Ki was < 3 nM. For the compound `C[C@@H](Nc1ncc(C#N)c(-c2c[nH]c3ncc(C(F)(F)F)cc23)n1)C1CCN(C(=O)C(C)(C)O)CC1` [Compound I-206, 2-((R)-1-(1-(2-hydroxy-2-methylpropanoyl)piperidin-4-yl)ethylamino)-4-(5-(trifluoromethyl)-1H-pyrrolo[2,3-b]pyridin-3-yl)pyrimidine-5-carbonitrile], the Ki is < 3 nM.

Consider `C[C@@H](O)C(=O)N1CCC([C@@H](C)Nc2ncc(C#N)c(-c3c[nH]c4ncc(C(F)(F)F)cc34)n2)CC1` [Compound I-207, 2-((R)-1-(1-((R)-2-hydroxypropanoyl)piperidin-4-yl)ethylamino)-4-(5-(trifluoromethyl)-1H-pyrrolo[2,3-b]pyridin-3-yl)pyrimidine-5-carbonitrile], for which the Ki was < 3 nM.

In the case of `CC(=O)N[C@H]1CC[C@H]([C@@H](C)Nc2ncc(C#N)c(-c3c[nH]c4ncc(C(F)(F)F)cc34)n2)CC1` [Compound I-208, N-((1R,4r)-4-((1R)-1-(5-cyano-4-(5-(trifluoromethyl)-1H-pyrrolo[2,3-b]pyridin-3-yl)pyrimidin-2-ylamino)ethyl)cyclohexyl)acetamide], the Ki was < 3 nM. In the case of `CC(=O)N[C@H]1CC[C@@H]([C@@H](C)Nc2ncc(C#N)c(-c3c[nH]c4ncc(C(F)(F)F)cc34)n2)CC1` [Compound I-209, N-((1S,4s)-4-((1R)-1-(5-cyano-4-(5-(trifluoromethyl)-1H-pyrrolo[2,3-b]pyridin-3-yl)pyrimidin-2-ylamino)ethyl)cyclohexyl)acetamide] it was 3 to 40 nM; in that of `C[C@@H](Nc1ncc(C#N)c(-c2c[nH]c3ncc(C(F)(F)F)cc23)n1)C1CCN(C(=O)CN)CC1` [Compound I-210, 2-((R)-1-(1-(2-aminoacetyl)piperidin-4-yl)ethylamino)-4-(5-(trifluoromethyl)-1H-pyrrolo[2,3-b]pyridin-3-yl)pyrimidine-5-carbonitrile], < 3 nM; in that of `C[C@@H](Nc1ncc(C#N)c(-c2c[nH]c3ncc(C(F)(F)F)cc23)n1)[C@H]1CC[C@H](NC(=O)CO)CC1` [Compound I-211, N-((1R,4r)-4-((1R)-1-(5-cyano-4-(5-(trifluoromethyl)-1H-pyrrolo[2,3-b]pyridin-3-yl)pyrimidin-2-ylamino)ethyl)cyclohexyl)-2-hydroxyacetamide], < 3 nM.

Turning to `C[C@@H](Nc1ncc(C#N)c(-c2c[nH]c3ncc(C(F)(F)F)cc23)n1)[C@H]1CC[C@@H](NC(=O)CO)CC1` [Compound I-212, N-((1S,4s)-4-((1R)-1-(5-cyano-4-(5-(trifluoromethyl)-1H-pyrrolo[2,3-b]pyridin-3-yl)pyrimidin-2-ylamino)ethyl)cyclohexyl)-2-hydroxyacetamide], the Ki is < 3 nM.

As to `CC(C)S(=O)(=O)N1CCC([C@@H](C)Nc2ncc(C#N)c(-c3c[nH]c4ncc(C(F)(F)F)cc34)n2)CC1` [Compound I-213, 2-((R)-1-(1-(isopropylsulfonyl)piperidin-4-yl)ethylamino)-4-(5-(trifluoromethyl)-1H-pyrrolo[2,3-b]pyridin-3-yl)pyrimidine-5-carbonitrile], the Ki was < 3 nM. In the case of `C=C1CC(C(C)Nc2ncc(C#N)c(-c3c[nH]c4ncc(C(F)(F)F)cc34)n2)C1` (centres unmarked) [Compound I-214, 2-(1-(3-methylenecyclobutyl)ethylamino)-4-(5-(trifluoromethyl)-1H-pyrrolo[2,3-b]pyridin-3-yl)pyrimidine-5-carbonitrile] it was 3 to 40 nM; in that of `C[C@@H](Nc1ncc(C#N)c(-c2c[nH]c3ncc(C(F)(F)F)cc23)n1)C1CCN(CCO)CC1` [Compound I-215, 2-((R)-1-(1-(2-hydroxyethyl)piperidin-4-yl)ethylamino)-4-(5-(trifluoromethyl)-1H-pyrrolo[2,3-b]pyridin-3-yl)pyrimidine-5-carbonitrile], < 3 nM; in that of `C[C@@H](Nc1ncc(C#N)c(-c2c[nH]c3ncc(C(F)(F)F)cc23)n1)C1CCN(C(=O)CCO)CC1` [Compound I-216, 2-((R)-1-(1-(3-hydroxypropanoyl)piperidin-4-yl)ethylamino)-4-(5-(trifluoromethyl)-1H-pyrrolo[2,3-b]pyridin-3-yl)pyrimidine-5-carbonitrile], < 3 nM.

As to `CC[C@H](O)C(=O)N1CCC([C@@H](C)Nc2ncc(C#N)c(-c3c[nH]c4ncc(C(F)(F)F)cc34)n2)CC1` [Compound I-217, 2-((R)-1-(1-((S)-2-hydroxybutanoyl)piperidin-4-yl)ethylamino)-4-(5-(trifluoromethyl)-1H-pyrrolo[2,3-b]pyridin-3-yl)pyrimidine-5-carbonitrile], the Ki was < 3 nM. In the case of `C[C@@H](Nc1ncc(C#N)c(-c2c[nH]c3ncc(C(F)(F)F)cc23)n1)C1CCN(CC(N)=O)CC1` [Compound I-218, 2-(4-((1R)-1-(5-cyano-4-(5-(trifluoromethyl)-1H-pyrrolo[2,3-b]pyridin-3-yl)pyrimidin-2-ylamino)ethyl)piperidin-1-yl)acetamide] it was < 3 nM; in that of `CC[C@@H](O)C(=O)N1CCC([C@@H](C)Nc2ncc(C#N)c(-c3c[nH]c4ncc(C(F)(F)F)cc34)n2)CC1` [Compound I-219, 2-((R)-1-(1-((R)-2-hydroxybutanoyl)piperidin-4-yl)ethylamino)-4-(5-(trifluoromethyl)-1H-pyrrolo[2,3-b]pyridin-3-yl)pyrimidine-5-carbonitrile], < 3 nM. Under `C[C@@H](Nc1ncc(C#N)c(-c2c[nH]c3ncc(C(F)(F)F)cc23)n1)C1CCN(C(=O)C2(O)CC2)CC1` [Compound I-220, 2-((R)-1-(1-(1-hydroxycyclopropanecarbonyl)piperidin-4-yl)ethylamino)-4-(5-(trifluoromethyl)-1H-pyrrolo[2,3-b]pyridin-3-yl)pyrimidine-5-carbonitrile] stands < 3 nM; under `CC(Nc1ncc(C#N)c(-c2c[nH]c3ncc(C(F)(F)F)cc23)n1)C1CN(C(=O)C(C)(C)O)C1` (centres unmarked) [Compound I-221, 2-(1-(1-(2-hydroxy-2-methylpropanoyl)azetidin-3-yl)ethylamino)-4-(5-(trifluoromethyl)-1H-pyrrolo[2,3-b]pyridin-3-yl)pyrimidine-5-carbonitrile], 3 to 40 nM. Under `CC(Nc1ncc(C#N)c(-c2c[nH]c3ncc(C(F)(F)F)cc23)n1)C1CN(C(=O)[C@@H](C)O)C1` (stereo partly drawn) [Compound I-222, 2-(1-(1-((R)-2-hydroxypropanoyl)azetidin-3-yl)ethylamino)-4-(5-(trifluoromethyl)-1H-pyrrolo[2,3-b]pyridin-3-yl)pyrimidine-5-carbonitrile] stands < 3 nM. For the compound `C[C@@H](Nc1ncc(C#N)c(-c2c[nH]c3ncc(C(F)(F)F)cc23)n1)c1ccc(NCCN2CCCC2)nc1` [Compound I-223, 2-((R)-1-(6-(2-(pyrrolidin-1-yl)ethylamino)pyridin-3-yl)ethylamino)-4-(5-(trifluoromethyl)-1H-pyrrolo[2,3-b]pyridin-3-yl)pyrimidine-5-carbonitrile], the Ki lay within 3 to 40 nM. In the case of `C[C@@H](Nc1ncc(C#N)c(-c2c[nH]c3ncc(C(F)(F)F)cc23)n1)C1CCN(C(=O)CCN)CC1` [Compound I-224, 2-((R)-1-(1-(3-aminopropanoyl)piperidin-4-yl)ethylamino)-4-(5-(trifluoromethyl)-1H-pyrrolo[2,3-b]pyridin-3-yl)pyrimidine-5-carbonitrile] it was < 3 nM. Under `C[C@@H](N)C(=O)N1CCC([C@@H](C)Nc2ncc(C#N)c(-c3c[nH]c4ncc(C(F)(F)F)cc34)n2)CC1` [Compound I-225, 2-((R)-1-(1-((R)-2-aminopropanoyl)piperidin-4-yl)ethylamino)-4-(5-(trifluoromethyl)-1H-pyrrolo[2,3-b]pyridin-3-yl)pyrimidine-5-carbonitrile] stands < 3 nM; under `CC[C@@H](N)C(=O)N1CCC([C@@H](C)Nc2ncc(C#N)c(-c3c[nH]c4ncc(C(F)(F)F)cc34)n2)CC1` [Compound I-226, 2-((R)-1-(1-((R)-2-aminobutanoyl)piperidin-4-yl)ethylamino)-4-(5-(trifluoromethyl)-1H-pyrrolo[2,3-b]pyridin-3-yl)pyrimidine-5-carbonitrile], < 3 nM. In the case of `C[C@@H](Nc1ncc(C#N)c(-c2c[nH]c3ncc(C(F)(F)F)cc23)n1)C1CCN(C(=O)C2CNC2)CC1` [Compound I-227, 2-((R)-1-(1-(azetidine-3-carbonyl)piperidin-4-yl)ethylamino)-4-(5-(trifluoromethyl)-1H-pyrrolo[2,3-b]pyridin-3-yl)pyrimidine-5-carbonitrile], the Ki was < 3 nM.
